From patent publication US10010560B2, “Small molecule HSP70 inhibitors” (THE TRUSTEES OF THE UNIVERSITY OF PENNSYLVANIA, priority 2014, dated 2018)

Legend:
ADP-HSP70 (WT, aa 1-641) = molecular target: T1, ADP-HSP70 (WT, aa 1-641) (Homo sapiens, UniProt P0DMV8, E110D); assay: ITC binding to ADP-bound full-length HSP70
T1 construct: Full-length recombinant proteins of HSP70 (aa 1-641) as well as DnaK (aa 1-638); His6 (N); made in house; host or cells: E. coli BL21 Star (DE3)
From the text: The human stress-inducible HSP70 (residues 1-641 or 386-616 of SEQ ID NO: 2) and E. coli DnaK (residues 1-638, 389-607, or 393-507 of SEQ ID NO: 4) were cloned into the pET25 vector (EMD Millipore Chemicals, Inc., Billerica, Mass., USA) between the NdeI and XhoI restriction sites. The full-length HSP70 and DnaK mutants were constructed by PCR-based site-directed mutagenesis using the QuikChange™ Site-Directed Mutagenesis Kit (Agilent Technologies, Inc., Santa Clara, Calif., USA). All plasmid inserts were verified by DNA sequencing. All HSP70 and DnaK variants were produced with a N-terminal His6-tag in the E. coli BL21 Star (DE3) strain (Invitrogen catalog number C6010-03). The resulting strains were grown at 37° C. in LB medium containing 50 μg/mL of carbenicillin (Sigma-Aldrich Co., St. Louis, Mo., USA). At an OD600 about 0.3 to about 0.5, protein expression was induced with 0.5 mM isopropyl-β-D-thiogalactopyranoside (IPTG), and cells were subsequently grown at 25° C. for about 16 h. Cells were collected by centrifugation and resuspended in the Bugbuster® Master Mix (EMD Millipore Chemicals catalog number 71456-4), supplemented with protease inhibitors, 1 mM diethiothreitol (DTT) and 20 mM imidazole. The His6-tagged fusion proteins were isolated on Ni^2+-chelating resins (Ni-NTA Superflow, Qiagen catalog number 30410) by standard procedures. When necessary, size-exclusion chromatography on a Superdex® 200 or a Superose® 6 10/300 GL columns (GE Healthcare) analytical column pre-equilibrated with 1× Dulbecco's Phosphate Buffered Saline (DPBS—Invitrogen 14190-136), 1 mM Tris-HCl (pH 7.4) or 10 mM Tris-HCl (pH 7) was used as the final purification step. The purified DnaK proteins were dialyzed thoroughly against 1× DPBS with 5 mM DTT at 4° C., for crystallization trials involving the small molecule inhibitor PET-16. For isothermal titration calorimetry studies, all HSP70 and DnaK variants were dialyzed extensively against the buffers as noted below under the section entitled “Isothermal Titration calorimetry Studies”. The dialyzed proteins were subsequently microcentrifugated at 15,000×g for 5 min at 4° C. and aliquots of the soluble proteins were stored at −80° C.
All ITC experiments were performed using a MicroCal VP-ITC isothermal titration calorimeter (MicroCal). Both full-length HSP70 and DnaK proteins and DnaK (aa 393-507) proteins were prepared in 1 mM Tris-HCl (pH 7.4) buffer containing 3% dimethylsulfoxide (DMSO). The HSP70 (aa 386-616) protein was prepared in buffer containing 3% DMSO and 10 mM Tris-HCl, pH 7. The syringe was loaded with purified protein in either 1 mM Tris-HCl (pH 7.4) buffer containing 3% DMSO or 10 mM Tris-HCl (pH 7) buffer containing 3% DMSO. The sample cell of the calorimeter was loaded with PES, PET-16 or NRLLLTG (SEQ ID NO: 7) prepared in the same buffer. All solutions were degassed for 5 min.
The titrations involving the full-length purified proteins were performed at 25° C. with injection volumes of 12 μL and a spacing of 300 s. The titrations involving the purified HSP70 (aa 386-616) and DnaK (aa 393-507) were performed at 42° C. with injection volumes of 12 μL and a spacing of 300 s. Heat from the pre-injection was not used during fitting. The data were fit using a one-site binding model available in the Origin® ITC data analysis software (MicroCal Origin® V5.0, MicroCal Software, Northampton, Mass.). Error values obtained from the MicroCal Origin® V5.0 software were averaged and reported. […]

Cyclophilin D (Cyp-D) = assay: Purified mitochondria from H1299 cells, western blot for Cyp-D; format: cell-based
From the text: FIGS. 5A-5F illustrates that PET-16 leads to loss of mitochondrial protein Cyclophilin D and impairs bioenergetics in tumor cells. FIGS. 5A-5D are western blots of HSP70, which is present at mitochondria of tumor H1299 cells but not in normal tissue, such as liver. The constitutively expressed 70 kDa family members, HSC70 and GRP75, are present in mitochondria of normal cells. Equal amounts of whole cell (WC)-, cytosolic (cyto)-, and mitochondrial (mito)-extracts prepared from cell lines H1299 (A, C) and MIA PaCa-2 (B) or normal (liver) cells (C, D) were examined by western blot analysis for the presence of the proteins indicated. […] Decreases of AlamarBlue® fluorescence, indicative of mitochondrial damage, are noted in PET-16-treated tumor cells (melanoma tumor cell line WM88 (-), melanoma tumor cell line WM3000 (×), melanoma tumor cell line WM852 (*), human melanoma 451 Lu cells (●), and melanoma tumor cell line WM989 (|), but not normal cells (nontransformed human fibroblasts (IMR90-♦) and primary melanocytes (▪)). Values are normalized to the vehicle-treated cells. Error bars represent standard deviation (s.d.) of four independent experiments. […]

[1] = ITC, wild-type full-length ADP-bound HSP70

T1 sequence (P0DMV8 whole entry E110D, the tested form may be a part): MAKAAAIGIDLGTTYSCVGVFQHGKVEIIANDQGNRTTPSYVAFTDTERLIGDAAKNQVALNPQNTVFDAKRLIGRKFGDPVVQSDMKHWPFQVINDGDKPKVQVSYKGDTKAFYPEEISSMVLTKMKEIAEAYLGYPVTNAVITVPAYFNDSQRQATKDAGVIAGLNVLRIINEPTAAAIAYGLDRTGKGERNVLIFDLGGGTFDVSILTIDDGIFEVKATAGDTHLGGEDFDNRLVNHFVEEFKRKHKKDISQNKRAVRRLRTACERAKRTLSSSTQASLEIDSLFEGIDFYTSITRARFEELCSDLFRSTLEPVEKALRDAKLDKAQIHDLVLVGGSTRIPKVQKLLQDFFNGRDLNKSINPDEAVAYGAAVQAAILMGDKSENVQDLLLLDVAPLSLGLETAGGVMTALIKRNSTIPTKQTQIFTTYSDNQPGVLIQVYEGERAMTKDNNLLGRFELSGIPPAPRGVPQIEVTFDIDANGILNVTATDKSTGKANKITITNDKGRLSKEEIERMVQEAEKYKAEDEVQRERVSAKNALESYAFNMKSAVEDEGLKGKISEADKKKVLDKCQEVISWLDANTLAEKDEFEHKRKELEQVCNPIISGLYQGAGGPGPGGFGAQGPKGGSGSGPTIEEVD

SMILES | Kd (ADP-HSP70 (WT, aa 1-641); [1]) [µM] | abundance of Cyp-D in the soluble-protein fraction (Cyclophilin D (Cyp-D)) | Kd (ADP-HSP70 (WT, aa 1-641); dimeric ADP-bound HSP70 (N=0.5)) [µM] | Kd (ADP-HSP70 (WT, aa 1-641); tetrameric ADP-bound HSP70 (N=0.25)) [µM]
NS(=O)(=O)C#Cc1ccccc1 [PES, 2-Phenylethynesulfonamide, reference compound] | ~5.7 | not | – | –
C(#C[P+](c1ccccc1)(c1ccccc1)c1ccccc1)c1ccccc1.[Br-] [PET-16, triphenyl(phenylethynyl)phosphonium bromide] | ~3.8 | significantly reduced | 3.8 | 1.3
